{"source": "patent US20120315308A1", "about": "“METHODS AND DEVICES FOR CONTROLLING PARTICLE SIZE AND PARTICLE SIZE DISTRIBUTION” (priority 2010, published 2012)", "procedure": "A submicron dispersion of naproxen was prepared using the enhanced initial dispersion followed by a secondary high shear mixing process. The following equipment was used for the experiment:\n(1) An Ivek Digispense 3009 controller with an AP motor/base assembly and a AA pump body.\n(2) A Micronoson Ultrasonic Cell Distruptor, XL 100 watt ultrasonic controller and a Misonix 22.5 kHz ultrasonic transducer horn with a coaxillal center feed.\n(3) Microfluidizer—Microfluidics M-110EH-25 high shear processor with a 75 micron F-20Y interaction chamber.\n(4) Horiba LA-950 Laser Diffraction Particle Size Analyzer.\nThe Ivek Digispense pump speed was calibrated to 20 mL/min.\nThe end of the ultrasonic horn, also referred to as an ultrasonic probe, was suspended in air, the power to the Ivek pump and the ultrasonic probe was turned on. Ultrasonic power was set to 20 watts. The height of the ultrasonic probe dispense tubing was adjusted until the feed liquid was dispersed as small droplets, thereby creating a fine spray. The tubing was fixed at this height, as above and below this height, dispensed liquid simply drips from the probe.\nThe tip of the ultrasonic transducer horn was secured just above the check valve in the feed reservoir. The antisolvent was a 0.5% Triton X-100 in dionized water, and 190 mL of the antisolvent was added to the inlet reservoir of the Microfluidizer. Naproxen has a tendency to agglomerate, therefore, nonionic Triton X-100 surfactant was used as the antisolvent.\nDMSO was used as the solvent and it contained 13.75 g naproxen per 100 mL solvent. An ice bath was used to chill the sample to avoid over heating with multiple passes.\nThe microfluidizer pressure was set to 24,000 psi, using the antisolvent. […] The outlet from the cooling coil of the microfluidizer was placed in the inlet reservoir to allow for recycling of the process. The Ivek Pump was set for 20 mL/min.\nWith the Microfluidizer running at 24,000 psi in a recirculation mode the Pump and Ulrasonic Probe were simutaneously turned on for 30 seconds and then immediately turned off. A single pass sample was collected for particle size analyzsis. This sample contained 1.375 grams of naproxen in the mixed solution of DMSO & 0.5% triton X-100 DI water. The Microfluidizer continued to run for an additional 150 seconds for a total of 180 seconds. After six passes, a sample was collected to evaulate particle size.\nThe graph presented in FIG. 3 is a plot of naproxen particle diameter (x axis) vs. frequency of occurrence of the particle diameter (y axis). Table 6 provides the mean and median particle size for each run.", "key": {"[1]": {"details": "no ultrasonic step, 1 pass through Microfluidizer at 24,000 psi"}, "[2]": {"details": "no ultrasonic step, 6 passes through Microfluidizer at 24,000 psi"}, "[3]": {"details": "with ultrasonic initial mixing, 1 pass through Microfluidizer at 24,000 psi, DMSO / 0.5% Triton X-100 in water"}, "[4]": {"details": "with ultrasonic initial mixing, 6 passes through Microfluidizer at 24,000 psi, DMSO / 0.5% Triton X-100 in water"}}, "note": "“And” between values parts separate entries of the source, which are not always exact repeats. Equal entries are not always repeated. Where two headings read alike, the source gives them in different places.", "data": [{"smiles": "COc1ccc2cc([C@H](C)C(=O)O)ccc2c1", "note": "[naproxen]", "values": [{"measurement": "Mean Particle Size", "setting": "[1]", "value": "4.65 μm and 8.199 μm"}, {"measurement": "Median particle size", "setting": "[1]", "value": "4.784 μm and 8.324 μm"}, {"measurement": "Mean Particle Size", "setting": "[2]", "value": "2.4845 μm and 2.47 μm"}, {"measurement": "Median particle size", "setting": "[2]", "value": "1.214 μm and 1.696 μm"}, {"measurement": "Mean Particle Size", "setting": "[3]", "value": "1.021 μm and 1.257 μm"}, {"measurement": "Median particle size", "setting": "[3]", "value": "0.3267 μm and 0.6459 μm"}, {"measurement": "Mean Particle Size", "setting": "[4]", "value": "0.6051 μm and 0.606 μm"}, {"measurement": "Median particle size", "setting": "[4]", "value": "0.5067 μm and 0.4602 μm"}, {"measurement": "median naproxen particle size (diameter)", "setting": "with ultrasonic initial mixing, regardless of how many passes were employed", "value": "less than 1 μm"}]}]}
